{
  "source": "patent US9113629B2",
  "about": "“4-amino-6-(4-substituted-phenyl)-picolinates and 6-amino-2-(4-substituted-phenyl)-pyrimidine-4-carboxylates and their use as herbicides” (DOW AGROSCIENCES LLC, priority 2013, dated 2015)",
  "key": {"[1]": {"system": "Key Broadleaf Weed and Crop Species", "experiment": "Post-emergent Test II herbicidal activity (Table 5)", "type": "in vivo", "conditions": "post-emergence, 336 h, 14 days after application; for pest or weed control at 70 g/ha: application rate 70 g ai/ha; for pest or weed control at 140 g/ha: application rate 140 g ai/ha", "method_in_brief": "(§1)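 Spray rates: a highest rate plus ½×, ¼×, ⅛×, 1/16×, all delivered at 187 L/ha to plants at the first–second true leaf stage. Readout is a visual percent injury score at 14 d, where 100 means complete kill.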"}, "[2]": {"system": "Key Grass and Sedge Weeds as well as Grass Crops", "experiment": "Post-emergent Test II herbicidal activity (Table 6)", "type": "in vivo", "conditions": "post-emergence, 336 h; for pest or weed control at 70 g/ha: 70 g ai/ha; for pest or weed control at 140 g/ha: 140 g ai/ha", "method_in_brief": "as §1"}, "[3]": {"conditions": "ABUTH: velvetleaf (Abutilon theophrasti), read-out: Visual Growth Reduction (%) 14 Days After Application, ABUTH"}, "[4]": {"conditions": "AMARE: redroot pigweed (Amaranthus retroflexus), read-out: Visual Growth Reduction (%) 14 Days After Application, AMARE"}, "[5]": {"conditions": "BRSNN: oilseed-rape, canola (Brassica napus), read-out: Visual Growth Reduction (%) 14 Days After Application, BRSNN"}, "[6]": {"conditions": "CHEAL: lambsquarters (Chenopodium album), read-out: Visual Growth Reduction (%) 14 Days After Application, CHEAL"}, "[7]": {"conditions": "EPHHL: wild poinsettia (Euphorbia heterophylla), read-out: Visual Growth Reduction (%) 14 Days After Application, EPHHL"}, "[8]": {"conditions": "HELAN: sunflower (Helianthus annuus), read-out: Visual Growth Reduction (%) 14 Days After Application, HELAN"}, "[9]": {"conditions": "VIOTR: wild pansy (Viola tricolor), read-out: Visual Growth Reduction (%) 14 Days After Application, VIOTR"}, "[10]": {"conditions": "CYPES: yellow nutsedge (Cyperus esculentus), read-out: Visual Growth Reduction (%) 14 Days After Application, CYPES"}, "[11]": {"conditions": "DIGSA: crabgrass (Digitaria sanguinalis), read-out: Visual Growth Reduction (%) 14 Days After Application, DIGSA"}, "[12]": {"conditions": "ECHCG: barnyardgrass (Echinochloa crus-galli), read-out: Visual Growth Reduction (%) 14 Days After Application, ECHCG"}, "[13]": {"conditions": "ORYSA: rice (Oryza sativa), crop, read-out: Visual Growth Reduction (%) 14 Days After Application, ORYSA"}, "[14]": {"conditions": "SETFA: giant foxtail (Setaria faberi), read-out: Visual Growth Reduction (%) 14 Days After Application, SETFA"}, "[15]": {"conditions": "SORVU: grain sorghum (Sorghum vulgare), read-out: Visual Growth Reduction (%) 14 Days After Application, SORVU"}, "[16]": {"conditions": "TRZSS (wheat, Triticum aestivum), crop, read-out: Visual Growth Reduction (%) 14 Days After Application, TRZSS"}, "[17]": {"conditions": "ZEAMX: maize, corn (Zea mays), crop, read-out: Visual Growth Reduction (%) 14 Days After Application, ZEAMX"}},
  "note": "Read-outs that look alike come from different tables or passages of the source.",
  "data": [
    {"compound": "COC(=O)c1nc(-c2ccc(I)cc2)c(F)c(N)c1Cl", "note": "[Compound 118, Methyl 4-amino-6-(4-iodophenyl)-3-chloro-5-fluoropicolinate]", "values": [
      {"measurement": "pest or weed control at 70 g/ha", "setting": "[1]; [3]", "result": "95 to 100", "unit": "%"},
      {"measurement": "pest or weed control at 140 g/ha", "setting": "[1]; [3]", "result": "95 to 100", "unit": "%"},
      {"measurement": "pest or weed control at 70 g/ha", "setting": "[1]; [4]", "result": "95 to 100", "unit": "%"},
      {"measurement": "pest or weed control at 140 g/ha", "setting": "[1]; [4]", "result": "95 to 100", "unit": "%"},
      {"measurement": "pest or weed control at 70 g/ha", "setting": "[1]; [5]", "result": "95 to 100", "unit": "%"},
      {"measurement": "pest or weed control at 140 g/ha", "setting": "[1]; [5]", "result": "95 to 100", "unit": "%"},
      {"measurement": "pest or weed control at 70 g/ha", "setting": "[1]; [6]", "result": "95 to 100", "unit": "%"},
      {"measurement": "pest or weed control at 140 g/ha", "setting": "[1]; [6]", "result": "95 to 100", "unit": "%"},
      {"measurement": "pest or weed control at 70 g/ha", "setting": "[1]; [7]", "result": "95 to 100", "unit": "%"},
      {"measurement": "pest or weed control at 140 g/ha", "setting": "[1]; [7]", "result": "95 to 100", "unit": "%"},
      {"measurement": "pest or weed control at 70 g/ha", "setting": "[1]; [8]", "result": "95 to 100", "unit": "%"},
      {"measurement": "pest or weed control at 140 g/ha", "setting": "[1]; [8]", "result": "95 to 100", "unit": "%"},
      {"measurement": "pest or weed control at 70 g/ha", "setting": "[1]; [9]", "result": "85 to 94", "unit": "%"},
      {"measurement": "pest or weed control at 140 g/ha", "setting": "[1]; [9]", "result": "95 to 100", "unit": "%"},
      {"measurement": "pest or weed control at 70 g/ha", "setting": "[2]; [10]", "result": "95 to 100", "unit": "%"},
      {"measurement": "pest or weed control at 140 g/ha", "setting": "[2]; [10]", "result": "95 to 100", "unit": "%"},
      {"measurement": "pest or weed control at 70 g/ha", "setting": "[2]; [11]", "result": "75 to 84", "unit": "%"},
      {"measurement": "pest or weed control at 140 g/ha", "setting": "[2]; [11]", "result": "85 to 94", "unit": "%"},
      {"measurement": "pest or weed control at 70 g/ha", "setting": "[2]; [12]", "result": "95 to 100", "unit": "%"},
      {"measurement": "pest or weed control at 140 g/ha", "setting": "[2]; [12]", "result": "95 to 100", "unit": "%"},
      {"measurement": "pest or weed control at 70 g/ha", "setting": "[2]; [13]", "result": "30 to 44", "unit": "%"},
      {"measurement": "pest or weed control at 140 g/ha", "setting": "[2]; [13]", "result": "45 to 59", "unit": "%"},
      {"measurement": "pest or weed control at 70 g/ha", "setting": "[2]; [14]", "result": "45 to 59", "unit": "%"},
      {"measurement": "pest or weed control at 140 g/ha", "setting": "[2]; [14]", "result": "60 to 74", "unit": "%"},
      {"measurement": "pest or weed control at 70 g/ha", "setting": "[2]; [15]", "result": "95 to 100", "unit": "%"},
      {"measurement": "pest or weed control at 140 g/ha", "setting": "[2]; [15]", "result": "95 to 100", "unit": "%"},
      {"measurement": "pest or weed control at 70 g/ha", "setting": "[2]; [16]", "result": "75 to 84", "unit": "%"},
      {"measurement": "pest or weed control at 140 g/ha", "setting": "[2]; [16]", "result": "75 to 84", "unit": "%"},
      {"measurement": "pest or weed control at 70 g/ha", "setting": "[2]; [17]", "result": "60 to 74", "unit": "%"},
      {"measurement": "pest or weed control at 140 g/ha", "setting": "[2]; [17]", "result": "85 to 94", "unit": "%"}
    ]}
  ]
}
